Entries after “also recorded” stand apart in the source; their conditions may differ.
Tests used:
[1] = target: T1, Hos3 (Saccharomyces cerevisiae, UniProt Q02959); assay: Histone deacetylase fluorescent activity assay (7AC hydrolysis); format: biochemical; settings: 7AC as substrate; 150 nM Hos3; pH 8.0
T1 construct: made in house; host or cells: E. coli BL21(DE3)
T1 sequence (Q02959 1-697): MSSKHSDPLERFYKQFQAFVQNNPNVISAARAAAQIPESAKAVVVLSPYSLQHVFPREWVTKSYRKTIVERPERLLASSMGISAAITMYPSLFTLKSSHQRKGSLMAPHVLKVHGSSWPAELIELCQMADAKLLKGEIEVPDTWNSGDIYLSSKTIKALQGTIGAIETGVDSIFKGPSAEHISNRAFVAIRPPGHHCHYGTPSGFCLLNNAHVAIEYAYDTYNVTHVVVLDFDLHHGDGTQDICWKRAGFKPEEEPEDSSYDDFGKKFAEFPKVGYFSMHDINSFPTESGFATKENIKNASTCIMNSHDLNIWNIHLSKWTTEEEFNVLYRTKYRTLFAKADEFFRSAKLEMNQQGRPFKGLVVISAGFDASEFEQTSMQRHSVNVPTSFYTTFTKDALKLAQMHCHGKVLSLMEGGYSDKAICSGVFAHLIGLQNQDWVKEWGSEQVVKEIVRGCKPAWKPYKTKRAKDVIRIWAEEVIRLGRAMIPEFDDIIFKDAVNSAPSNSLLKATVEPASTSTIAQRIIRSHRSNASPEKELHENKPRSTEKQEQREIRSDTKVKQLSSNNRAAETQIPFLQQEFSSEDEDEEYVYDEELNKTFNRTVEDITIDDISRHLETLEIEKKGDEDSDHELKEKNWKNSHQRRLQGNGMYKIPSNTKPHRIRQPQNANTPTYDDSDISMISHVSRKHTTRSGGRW
Procedure: (§1) As depicted in FIG. 1, the inventive fluorescence-based HDAC assay monitors the hydrolysis of 7AC to 7-hydroxycoumarin, or of ACC to 7-hydroxycoumarin-3-carboxylic acid, at λex=332 nm and λem=447 nm. […] Utilization rations for each enzyme with the 7AC substrate were calculated. For Hos3, the utilization ratio was 1.9122×10^−4 s^−1, and 1274.8 M^−1 s^−1 when normalized by enzyme concentration. For HDLP, the utilization ratio was 2.0375×10^−4 s^−1, and 612.8 M^−1 s^−1 when normalized by enzyme concentration. For HDAC2, the utilization ratio was 1.2526×10^−5 s^−1, and 35.8 M^−1 s^−1 when normalized by enzyme concentration, as shown in Table 1.
(§2) HDAC activity assays were performed in HDAC assay buffer (20 mM Tris, pH 8.0, 500 mM NaCl, 1 mM MnCl2) to a final reaction volume of 1 ml in quartz spectrophotometer cuvettes. Fluorescence spectrophotometry was used to monitor ACC or 7AC hydrolysis (λex=332 nm, λem=447 nm). Internal fluorescence intensity calibrations were obtained using quinine sulfate as known in the art. ACC or 7AC substrate (solubilized in 100% DMSO) was added in the appropriate concentrations to the assay buffer (1% final concentration of DMSO) and the basal rate of hydrolysis was recorded. After 90 seconds, 150 nM Hos3 enzyme was added and the reaction was allowed to proceed for 600 seconds. […] Utilization ratios for Hos3 were calculated based on the adjusted initial rates. […]

[2] = target: T2, HDAC2 (Homo sapiens, UniProt Q92769); assay: as above; format: biochemical; settings: 7AC as substrate; 350 nM GST-HDAC2; pH 8.0
T2 construct: made in house; host or cells: E. coli BL21(DE3)
Procedure: as §1, §2

[3] = Background (basal) rate of substrate hydrolysis in assay buffer; format: physicochemical; settings: assay buffer at pH 8.0; compared with ACC
Procedure: as §1, §2

[4] = Solubility of substrate in assay buffer; format: physicochemical; settings: HDAC assay buffer
[5] = test system: HDLP; assay: Histone deacetylase fluorescent activity assay (7AC hydrolysis); format: biochemical, Aquifex aeolicus; settings: 7AC as substrate; 330 nM GST-HDLP; pH 8.0
Procedure: as §1, §2

[6] = target: T1, Hos3; assay: HDAC inhibitor studies (competition with 7AC substrate, fluorescent assay); format: biochemical; settings: for IC50: Hos3 (150 nM) with 7AC (75 mM) substrate; for Mode of Inhibition: Hos3, 7AC substrate, double-reciprocal plots, IC50 vs substrate concentration for TSA
Procedure: Characterization of the Mechanism of Inhibition. Inhibitor studies were conducted using the 7AC substrate and the fluorescent histone deacetylase activity assay.
Competition experiments were performed in HDAC assay buffer (20 mM Tris, pH 8.0, 500 mM NaCl, 1 mM MnCl2) to a final reaction volume of 1 ml. Trichostatin A was solubilized in 100% DMSO, yielding a final concentration of 2% DMSO in this reaction. […] The final DMSO concentration in these reactions was 1%. 7AC substrate and inhibitor were added in the appropriate concentrations to the assay buffer and the basal rate of hydrolysis was recorded. Hos3 enzyme (150 nM) was added after 90 seconds and the reaction was allowed to proceed for 600 seconds. Initial rate data was transformed into appropriate rates and dose response plots were generated. IC50 values were calculated using the program Kaleidagraph with equation 4: […]
where vi is the initial velocity in the presence of inhibitor, vo, is the initial velocity in the absence of inhibitor, and [I] is the concentration of inhibitor. Ki values were determined by Dixon plots […]. The modes of inhibition were determined by double-reciprocal or Lineweaver-Burk plots, where 1/v is plotted as a function of 1/[S], using the programs of Cleland.

[7] = target: T1, Hos3; assay: as above; format: biochemical; settings: Hos3 (150 nM), slope of Henderson plot
[8] = substrate: CC(=O)Oc1ccc([N+](=O)[O-])cc1; assay: UV-based histone deacetylase activity assay; format: biochemical, Saccharomyces cerevisiae; settings: other: MBP-Hos3; UV at 410 nm
Source text: The substrates 7AC and ACC can also be effectively utilized in a UV assay. The substrate absorbs from 250-340 nm, while the product has a maximal absorbance at 375 nm. So substrate hydrolysis/product formation can be monitored by the increase in absorbance at 375 nm. […] Para-nitrophenylacetate can also be used to assay HDAC activity. Upon acetate hydrolysis, the para-nitrophenylacetate liberates the colored p-nitrophenol chromophore; this reaction can be monitored on the UV at 410 nm.
HDAC activity assays were performed in HDAC Assay Buffer to a final reaction volume of 1 ml in quartz cuvettes. UV/Vis spectrophotometer was used to monitor the rate of 7AC hydrolysis. The 7AC substrate absorbs from 250-340 nm, while the product, 7-hydroxycoumarin, has a maximal absorbance at 375 nm. Reactions were initiated with substrate and allowed to proceed for 300 seconds, while monitoring the increase in absorbance at 375 nm. Para-nitrophenylacetate was also used to assay HDAC activity. Upon acetate hydrolysis, the para-nitrophenylacetate liberated the colored p-nitrophenol chromophore; this reaction was monitored on the UV at 410 nm. Initial rates and utilization ratios were calculated as described above.

T2 sequence (Q92769 whole entry): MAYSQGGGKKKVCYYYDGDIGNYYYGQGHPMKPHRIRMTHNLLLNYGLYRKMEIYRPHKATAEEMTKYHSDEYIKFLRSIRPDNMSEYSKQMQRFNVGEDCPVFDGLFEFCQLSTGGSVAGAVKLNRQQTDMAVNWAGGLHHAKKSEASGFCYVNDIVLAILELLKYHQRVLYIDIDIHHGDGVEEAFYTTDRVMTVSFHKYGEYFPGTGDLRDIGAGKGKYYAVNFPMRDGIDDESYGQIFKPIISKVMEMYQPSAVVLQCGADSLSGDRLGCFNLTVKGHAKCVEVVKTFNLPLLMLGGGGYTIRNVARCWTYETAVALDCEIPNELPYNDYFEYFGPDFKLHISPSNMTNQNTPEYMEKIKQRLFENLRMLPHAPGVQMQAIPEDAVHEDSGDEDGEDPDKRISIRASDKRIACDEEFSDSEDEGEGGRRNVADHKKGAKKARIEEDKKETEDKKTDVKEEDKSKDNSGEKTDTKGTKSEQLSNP

Molecule: CC(=O)Oc1ccc2ccc(=O)oc2c1 [7AC, 7-Acetoxycoumarin]
- V/K (utilization ratio) [1]: 0.00019122 s⁻¹
- V/[Et]/K (utilization ratio normalized by enzyme concentration) [1]: 1274.8 M⁻¹ s⁻¹
- V/K (utilization ratio) [2]: 1.2526e-05 s⁻¹
- V/[Et]/K (utilization ratio normalized by enzyme concentration) [2]: 35.8 M⁻¹ s⁻¹
- Background rate of hydrolysis [3]: lower background rate of hydrolysis
- solubility ([4]; aqueous buffer): ≤ 1 mM
- V/K (utilization ratio) [5]: 0.00020375 s⁻¹
- V/[Et]/K (utilization ratio normalized by enzyme concentration) [5]: 612.8 M⁻¹ s⁻¹

Molecule: CCCC(=O)[O-].[Na+] [NaB, sodium butyrate]
- IC50 [6]: 13.4 mM
- Ki ([6]; Hos3 (150 nM), 7AC substrate, Dixon plot): 12 mM
- Mode of Inhibition [6]: Mixed-
- Mode of Inhibition ([6]; listed as Sodium butyrate): mixed-type inhibition
- Mode of Inhibition ([6]; listed as sodium butyrate): mixed-competitive inhibitor

Molecule: CC(=O)Oc1ccc([N+](=O)[O-])cc1 [Para-nitrophenylacetate, 4-nitrophenylacetate]
- Solubility limitation [4]: subject to solubility limitations that prevent complete saturation of the enzyme

Molecule: CC(/C=C/C(=O)NO)=C\[C@@H](C)C(=O)c1ccc(N(C)C)cc1 [TSA, Trichostatin A]
- Ki [7]: 81 nM
- IC50 [6]: 0.000127 mM
- Mode of Inhibition [6]: Tight-binding
- Mode of Inhibition ([6]; listed as Trichostatin A): tight-binding competitive inhibitor; also recorded: tight-binding, competitive inhibitor; also recorded: tight binding competitive inhibition

B1: Hos3 (Saccharomyces cerevisiae S288C) (protein)
chain: MSSKHSDPLERFYKQFQAFVQNNPNVISAARAAAQIPESAKAVVVLSPYSLQHVFPREWVTKSYRKTIVERPERLLASSMGISAAITMYPSLFTLKSSHQRKGSLMAPHVLKVHGSSWPAELIELCQMADAKLLKGEIEVPDTWNSGDIYLSSKTIKALQGTIGAIETGVDSIFKGPSAEHISNRAFVAIRPPGHHCHYGTPSGFCLLNNAHVAIEYAYDTYNVTHVVVLDFDLHHGDGTQDICWKRAGFKPEEEPEDSSYDDFGKKFAEFPKVGYFSMHDINSFPTESGFATKENIKNASTCIMNSHDLNIWNIHLSKWTTEEEFNVLYRTKYRTLFAKADEFFRSAKLEMNQQGRPFKGLVVISAGFDASEFEQTSMQRHSVNVPTSFYTTFTKDALKLAQMHCHGKVLSLMEGGYSDKAICSGVFAHLIGLQNQDWVKEWGSEQVVKEIVRGCKPAWKPYKTKRAKDVIRIWAEEVIRLGRAMIPEFDDIIFKDAVNSAPSNSLLKATVEPASTSTIAQRIIRSHRSNASPEKELHENKPRSTEKQEQREIRSDTKVKQLSSNNRAAETQIPFLQQEFSSEDEDEEYVYDEELNKTFNRTVEDITIDDISRHLETLEIEKKGDEDSDHELKEKNWKNSHQRRLQGNGMYKIPSNTKPHRIRQPQNANTPTYDDSDISMISHVSRKHTTRSGGRW
notes: made in house; host or cells: E. coli BL21(DE3)
- Km [8]: 8.3 mM

Reference: patent publication US20110300566A1, “METHODS FOR SCREENING FOR HISTONE DEACETYLASE ACTIVITY AND FOR IDENTIFYING HISTONE DEACETYLASE INHIBITORS” (priority 2002, published 2011)
